Where a name gives a salt, the structure may show the parent alone.
How the values were obtained:
[1] = Odor threshold and odor value of perfuming compounds (Tables 4 to 10)
[2] = Volatility of perfuming compounds (Tables 4 to 10), with top/middle/bottom note type; format: physicochemical
Summary of the method: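 Note type follows from air volatility (μg/l): bottom 49–0.1, middle 99–50, top 70,000–100. Compounds are listed within watery, green, fruity, citrus, sweet, gourmand and woody families.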

[3] = Table 6, perfuming compounds having a fruity note
[4] = Table 7, citrus note, equals volatility divided by odor threshold
[5] = perfuming compounds having a green note
[6] = Table 6, perfuming compounds having a fruity note, note type by volatility
[7] = Table 7, citrus note, top, middle or bottom note
[8] = note type (Top/Middle/Bottom) by volatility, perfuming compounds having a green note
[9] = Table 4, watery note, equals volatility divided by odor threshold
[10] = Table 4, watery note, top, middle or bottom note
[11] = Table 10, perfuming compounds having a woody note, note type by volatility
[12] = Table 8, perfuming compounds having a sweet note
[13] = Table 8, perfuming compounds having a sweet note, note type by volatility
[14] = Table 9, perfuming compounds having a gourmand note, note type by volatility

In the case of `CC/C=C\CCOC(=O)c1ccccc1` [(3Z)-3-hexen-1-yl benzoate], the “Odor Threshold” value [1, 3] was 4.37E−02 μg/l air, the “Odor Value” [1, 3] was 2.53E+02 and the “Odor Threshold (μg/l air)” value ([1]; Table 7, citrus note) was 4.37E−02 μg/l air. The “Odor Value” [1, 4] was 2.53E+02, the “Odor Threshold (μg/l air)” value [1, 5] was 4.37E−02 μg/l air and the Volatility [2, 3] was 11.05 μg/l air. For the same molecule, the Type [2, 6] was “Bottom”, the “Volatility (μg/l air)” value ([2]; Table 7, citrus note) was 11.05 μg/l air and the Type [2, 7] was “Bottom”. The Type [2, 8] was “Bottom” and the “Volatility (μg/l air)” value [2, 5] was 11.05 μg/l air.

In the case of `CC(C=O)Cc1ccc(C(C)(C)C)cc1` (racemic) [(+−)-2-methyl-3-[4-(2-methyl-2-propanyl)phenyl]propanal], the “Odor Threshold (μg/l air)” value ([1]; Table 4, watery note) was 2.39E−04 μg/l air, the “Odor Value” [1, 9] was 5.38E+04 and the “Volatility (μg/l air)” value ([2]; Table 4, watery note) was 12.86 μg/l air. For the same molecule, the Type [2, 10] was “bottom (perfuming compounds having a volatility ranging from 49 to 0.1 μg/l in air are referred to as “bottom notes”)”.

For “3-(3,3-dimethyl-2,3-dihydro-1H-inden-5-yl)propanal (A) + 3-(1,1-dimethyl-2,3-dihydro-1H-inden-5-yl)propanal (B)”, the “Odor Threshold (μg/l air)” value ([1]; Table 4, watery note) was 1.32E−05 μg/l air, the “Odor Value” [1, 9] was 1.04E+06 and the “Volatility (μg/l air)” value ([2]; Table 4, watery note) was 13.73 μg/l air. For the same molecule, the Type [2, 10] was “bottom (perfuming compounds having a volatility ranging from 49 to 0.1 μg/l in air are referred to as “bottom notes”)”.

For “ALLYL (3-METHYLBUTOXY)ACETATE (A) + (+−)-ALLYL (2-METHYLBUTOXY)ACETATE (B)”, the “Odor Threshold (μg/l air)” value ([1]; Table 7, citrus note) was 9.89E−05 μg/l air, the “Odor Value” [1, 4] was 2.65E+06 and the “Volatility (μg/l air)” value ([2]; Table 7, citrus note) was 261.90 μg/l air. For the same molecule, the Type [2, 7] was “Top”.

For `CCCCC[C@@H]1C(=O)CC[C@@H]1CC(=O)OC`, the “Odor Threshold” value ([1]; Table 10, woody note) was 2.82E−04 μg/l air, the Type [2, 11] was “Bottom” and the Volatility ([2]; Table 10, woody note) was 1.71 μg/l air.

With `CCCC(=O)OC(C)(C)Cc1ccccc1` [1,1-DIMETHYL-2-PHENYLETHYL BUTANOATE] the “Odor Threshold” value [1, 3] was 2.68E−02 μg/l air, the “Odor Value” [1, 3] was 1.29E+03 and the “Odor Threshold” value [1, 12] was 2.68E−02 μg/l air. For the same molecule, the “Odor Value” [1, 12] was 1.29E+03, the “Odor Threshold” value ([1]; Table 9, gourmand note) was 2.68E−02 μg/l air and the Volatility [2, 3] was 34.65 μg/l air. The Type [2, 6] was “Bottom”, the Volatility [2, 12] was 34.65 μg/l air and the Type [2, 13] was “Bottom”. For the same molecule, the Volatility ([2]; Table 9, gourmand note) was 34.65 μg/l air and the Type [2, 14] was “Bottom”.

In the case of “(+−)-3-(4-methyl-3-penten-1-yl)-3-cyclohexene-1-carbaldehyde (A) + (+−)-4-(4-methyl-3-penten-1-yl)-3-cyclohexene-1-carbaldehyde (B)”, the “Odor Threshold (μg/l air)” value ([1]; Table 4, watery note) was 3.68E−03 μg/l air, the “Odor Value” [1, 9] was 5.85E+03 and the “Volatility (μg/l air)” value ([2]; Table 4, watery note) was 21.54 μg/l air. For the same molecule, the Type [2, 10] was “bottom (perfuming compounds having a volatility ranging from 49 to 0.1 μg/l in air are referred to as “bottom notes”)”.

For `CC/C=C\CC/C=C/C=O` [(2E,6Z)-2,6-NONADIENAL], the “Odor Threshold (μg/l air)” value [1, 5] was 1.46E−04 μg/l air, the Type [2, 8] was “Top” and the “Volatility (μg/l air)” value [2, 5] was 632.43 μg/l air.

For `CC/C=C\CCO` [(Z)-3-HEXEN-1-OL], the “Odor Threshold (μg/l air)” value [1, 5] was 1.13E−02 μg/l air, the Type [2, 8] was “Top” and the “Volatility (μg/l air)” value [2, 5] was 5986.62 μg/l air.

In the case of “(2RS,4SR)-4-methyl-2-phenyltetrahydro-2H-pyran (A) + (2RS,4RS)-4-methyl-2-phenyltetrahydro-2H-pyran (B)”, the “Odor Threshold (μg/l air)” value ([1]; Table 7, citrus note) was 1.04E−03 μg/l air, the “Odor Value” [1, 4] was 9.61E+04 and the “Volatility (μg/l air)” value ([2]; Table 7, citrus note) was 99.84 μg/l air. The Type [2, 7] was “Middle”.

In the case of `C/C=C/C(=O)C1=C(C)CCCC1(C)C`, the “Odor Threshold” value [1, 3] was 2.18E−04 μg/l air, the “Odor Value” [1, 3] was 3.75E+05 and the “Odor Threshold” value ([1]; Table 10, woody note) was 2.18E−04 μg/l air. For the same molecule, the Volatility [2, 3] was 81.66 μg/l air, the Type [2, 6] was “Middle” and the Type [2, 11] was “Middle”. It also gave a Volatility ([2]; Table 10, woody note) of 81.66 μg/l air.

With `CC1OCCC12NCCS2` (racemic) the “Odor Threshold” value [1, 12] was 2.53E−06 μg/l air, the “Odor Value” [1, 12] was 2.07E+07 and the Volatility [2, 12] was 52.47 μg/l air. For the same molecule, the Type [2, 13] was “Middle”.

In the case of `CC(C)c1ccc2c(c1)OCC(=O)CO2` [7-ISOPROPYL-2H,4H-1,5-BENZODIOXEPIN-3-ONE], the “Odor Threshold (μg/l air)” value ([1]; Table 4, watery note) was 3.20E−06 μg/l air, the “Odor Value” [1, 9] was 1.77E+07 and the “Volatility (μg/l air)” value ([2]; Table 4, watery note) was 56.74 μg/l air. The Type [2, 10] was “middle (perfuming compounds having a volatility ranging from 99 to 50 μg/l in air are referred to as “middle notes”)”.

In the case of `CC(=O)OC/C=C(\C)CCC=C(C)C` [(E)-3,7-DIMETHYL-2,6-OCTADIENYL ACETATE], the “Odor Threshold” value [1, 3] was 3.57E−02 μg/l air, the “Odor Threshold (μg/l air)” value [1, 5] was 3.57E−02 μg/l air and the Type [2, 6] was “Middle”. The Type [2, 8] was “Middle” and the “Volatility (μg/l air)” value [2, 5] was 79.23 μg/l air.

For `O=Cc1ccc2c(c1)OCO2` [benzo[d][1,3]dioxole-5-carbaldehyde], the “Odor Threshold” value ([1]; Table 9, gourmand note) was 1.01E−04 μg/l air, the Volatility ([2]; Table 9, gourmand note) was 61.82 μg/l air and the Type [2, 14] was “Middle”.

For `CC(C)(C)c1ccc2c(c1)OCC(=O)CO2` [7-(2-methyl-2-propanyl)-2H-1,5-benzodioxepin-3(4H)-one], the “Odor Threshold (μg/l air)” value ([1]; Table 4, watery note) was 1.53E−04 μg/l air, the “Odor Value” [1, 9] was 2.85E+04 and the “Odor Threshold (μg/l air)” value [1, 5] was 1.53E−04 μg/l air. For the same molecule, the “Volatility (μg/l air)” value ([2]; Table 4, watery note) was 4.37 μg/l air, the Type [2, 10] was “bottom (perfuming compounds having a volatility ranging from 49 to 0.1 μg/l in air are referred to as “bottom notes”)” and the Type [2, 8] was “Bottom”. For the same molecule, the “Volatility (μg/l air)” value [2, 5] was 4.37 μg/l air.

For `CC(=O)OCCC1=CCC2CC1C2(C)C` (stereo not drawn), the “Odor Threshold” value ([1]; Table 10, woody note) was 1.10E−01 μg/l air, the Type [2, 11] was “Middle” and the Volatility ([2]; Table 10, woody note) was 60.02 μg/l air.

With `CC1CC(C)(c2ccccc2)CO1` (racemic) the “Odor Threshold (μg/l air)” value [1, 5] was 5.04E−04 μg/l air, the Volatility [2, 3] was 263.73 μg/l air and the Type [2, 6] was “TOP (perfuming compounds having a volatility ranging from 70,000 to 100 μg/l in air are referred to as “top notes”)”. The Type [2, 8] was “Top” and the “Volatility (μg/l air)” value [2, 5] was 263.73 μg/l air.

In the case of `CC(C)=CCCC(C)CCOC=O` (racemic) [(+−)-3,7-DIMETHYL-6-OCTENYL FORMATE], the “Odor Threshold (μg/l air)” value [1, 5] was 1.72E−03 μg/l air, the Volatility [2, 3] was 262.84 μg/l air and the Type [2, 6] was “TOP (perfuming compounds having a volatility ranging from 70,000 to 100 μg/l in air are referred to as “top notes”)”. The Type [2, 8] was “Top” and the “Volatility (μg/l air)” value [2, 5] was 262.84 μg/l air.

For `CC/C=C\CC/C=C/CO` [(2E,6Z)-2,6-NONADIEN-1-OL], the “Odor Threshold (μg/l air)” value ([1]; Table 4, watery note) was 3.22E−06 μg/l air, the “Odor Value” [1, 9] was 3.07E+07 and the “Odor Threshold (μg/l air)” value [1, 5] was 3.22E−06 μg/l air. The “Volatility (μg/l air)” value ([2]; Table 4, watery note) was 98.76 μg/l air, the Type [2, 10] was “middle (perfuming compounds having a volatility ranging from 99 to 50 μg/l in air are referred to as “middle notes”)” and the Type [2, 8] was “Middle”. The “Volatility (μg/l air)” value [2, 5] was 98.76 μg/l air.

For `CCCCCCCCC1CCC(=O)O1` (racemic) [(+−)-5-octyldihydro-2(3H)-furanone], the “Odor Threshold” value [1, 3] was 2.85E−05 μg/l air, the “Odor Value” [1, 3] was 5.05E+04 and the Volatility [2, 3] was 1.44 μg/l air. The Type [2, 6] was “Bottom”.

With `CC(=O)OC(C)CCC=C(C)CCC=C(C)C` (stereo not drawn) [1,5,9-TRIMETHYL-4,8-DECADIENYL ACETATE] the “Odor Threshold (μg/l air)” value ([1]; Table 4, watery note) was 3.28E−04 μg/l air, the “Odor Value” [1, 9] was 4.49E+04 and the “Odor Threshold” value [1, 3] was 3.28E−04 μg/l air. The “Odor Value” [1, 3] was 4.49E+04, the “Volatility (μg/l air)” value ([2]; Table 4, watery note) was 14.74 μg/l air and the Type [2, 10] was “bottom (perfuming compounds having a volatility ranging from 49 to 0.1 μg/l in air are referred to as “bottom notes”)”. The Volatility [2, 3] was 14.74 μg/l air and the Type [2, 6] was “Bottom”.

With `CC1=CCC(CCC(C)C(C)O)C1(C)C` (racemic) the “Odor Threshold” value ([1]; Table 10, woody note) was 1.52E−03 μg/l air, the Type [2, 11] was “Bottom” and the Volatility ([2]; Table 10, woody note) was 5.22 μg/l air.

With `CC(=O)OCCC1CCCCC1` [2-CYCLOHEXYL ETHYL ACETATE] the “Odor Threshold” value [1, 12] was 4.49E−02 μg/l air, the “Odor Value” [1, 12] was 1.09E+04 and the Volatility [2, 3] was 489.45 μg/l air. The Type [2, 6] was “TOP (perfuming compounds having a volatility ranging from 70,000 to 100 μg/l in air are referred to as “top notes”)”, the Volatility [2, 12] was 489.45 μg/l air and the Type [2, 13] was “Top”.

In the case of `COc1ccc(COC(C)=O)cc1` [4-METHOXYBENZYL ACETATE], the “Odor Threshold” value [1, 3] was 9.24E−05 μg/l air, the “Odor Value” [1, 3] was 1.90E+05 and the Volatility [2, 3] was 17.59 μg/l air. The Type [2, 6] was “Bottom”.

From US20240301319A1, “PERFUMING COMPOSITIONS” (FIRMNICH SA, priority 2017, published 2024)
